Measured values reported in ChEMBL document CHEMBL4651402, “Screening of ~5500 FDA-approved drugs and clinical candidates for anti-SARS-CoV-2 activity” (2021).

Tested on: SARS-CoV-2
Test: microbe, parasite or virus in culture
Settings: Severe acute respiratory syndrome coronavirus 2, Vero C1008, 48 h

SMILES | IC50 | IC50 (read-out: pIC50 (converted))
COc1cccc(C(=O)CCNC(C)C(O)c2ccccc2)c1 (stereo unspecified) | > 20 µM | > 20 µM
CN1C2CCC1CC(O)C2 (stereo unspecified) | > 20 µM | > 20 µM
C[N+]1(C)CCC(=C(c2ccccc2)c2ccccc2)CC1 | > 20 µM | > 20 µM
CC[C@H]1OC(=O)[C@H](C)C(=O)[C@H](C)[C@@H](O[C@@H]2O[C@H](C)C[C@H](N(C)C)[C@H]2O)[C@](C)(OC)C[C@@H](C)C(=O)[C@H](C)[C@@H]2N(CCCCn3cnc(-c4cccnc4)c3)C(=O)O[C@@]21C | > 20 µM | > 20 µM
CC(=O)N[C@@H]1[C@@H](O[C@H](C)C(=O)O)[C@H](O)[C@@H](CO)O[C@@H]1O | > 20 µM | > 20 µM
COc1ccc(CCN(C)CCCC2(c3ccc(OC)c(OC)c3)S(=O)(=O)CCCS2(=O)=O)cc1OC | > 20 µM | > 20 µM
CN1CC(O)C2=CC(=O)C(=O)C=C21 (stereo unspecified) | > 20 µM | > 20 µM
Cc1cc2c(cc1S(N)(=O)=O)S(=O)(=O)CCC2 | > 20 µM | > 20 µM
Fc1ccc(C(c2ccc(F)cc2)N2CCN(C/C=C\c3ccccc3)CC2)cc1 | > 20 µM | > 20 µM
CC(=O)OCC(=O)[C@H]1CC[C@H]2[C@@H]3CC=C4C[C@@H](O)CC[C@]4(C)[C@H]3CC[C@]12C | > 20 µM | > 20 µM
CC12CCC3C4CCC(=O)C=C4CCC3C1CCC2OC(=O)CCc1ccccc1 (stereo unspecified) | > 20 µM | > 20 µM
COc1cccc(C=O)c1O | > 20 µM | > 20 µM
CCCCCCCCCCCCCCCC(=O)OCC(O)C1OC(=O)C(O)=C1O (stereo unspecified) | > 20 µM | > 20 µM
CC(C)(C)CC(C)(C)c1ccc(OCOCCOCCO)c(Cc2cc(C(C)(C)CC(C)(C)C)cc(Cc3cc(C(C)(C)CC(C)(C)C)ccc3OCOCCOCCO)c2OCOCCOCCO)c1 | > 20 µM | > 20 µM
COc1ccc2c(c1)C(C(=O)N(Cc1ccc(N(C)C)cc1)c1ccc(C(C)C)cc1)CCC2 (stereo unspecified) | > 20 µM | > 20 µM
NC(COP(=O)(O)O)C(=O)O (stereo unspecified) | > 20 µM | > 20 µM
CCC(CC)CC(=O)c1c(C(=O)OC)c(-c2ccc(OC)c(OC)c2)c2c(OC)c(OC)c(OC)cc2c1O | > 20 µM | > 20 µM
CN1C(CC(O)c2ccccc2)CCCC1CC(O)c1ccccc1 (stereo unspecified) | > 20 µM | > 20 µM
CCCN(CCC)CCc1ccc(OC)c(OCCc2ccccc2)c1 | > 20 µM | > 20 µM
CCCc1nn(C)c2c(=O)[nH]c(-c3cc(S(=O)(=O)N4CCN(C)CC4)ccc3OCC)nc12 | > 20 µM | > 20 µM
CC(C)C1C(=O)N2CCCC2C2(O)OC(NC(=O)C3C=C4c5cccc6[nH]cc(c56)CC4N(C)C3)(C(C)C)C(=O)N12 (stereo unspecified) | > 20 µM | > 20 µM
CCOC(=O)C1=CCCC[C@@H]1S(=O)(=O)Nc1ccc(F)cc1Cl | > 20 µM | > 20 µM
Cc1c(C)c2ccc(OCCCN3CCN(Cc4ccc(Cl)cc4)CC3)cc2oc1=O | > 20 µM | > 20 µM
O=C(Nc1cccc2c(=O)cc(-c3nnn[nH]3)oc12)c1ccc(OCCCCc2ccccc2)cc1 | > 100 µM | > 100 µM
CC(=O)OC1(c2ccccc2)CCN(CCc2ccccc2)CC1 | > 20 µM | > 20 µM

SMILES | IC50 | IC50 (read-out: pIC50 (converted))
NCC1CCC(C(=O)Oc2ccc(CCC(=O)O)cc2)CC1 (stereo unspecified) | > 20 µM | > 20 µM
CC(=O)N1C[C@H](O)C[C@H]1C(=O)N[C@@H](CCCN=C(N)N)C(=O)c1nc2ccccc2s1 | > 20 µM | > 20 µM
CNC(CC(=O)O)C(=O)O (stereo unspecified) | > 20 µM | > 20 µM
Nc1nc(O)c2ncn([C@@H]3O[C@H](CO)[C@@H](O)[C@H]3F)c2n1 | > 20 µM | > 20 µM
COc1cc2c(cc1OC)C(C)NCC2 (stereo unspecified) | > 20 µM | > 20 µM
NC(=O)CN1CC(c2ccccc2)CC1=O (stereo unspecified) | > 20 µM | > 20 µM
CN1C(=O)C(NC(=O)c2cc3ccccc3[nH]2)N=C(c2ccccc2)c2ccccc21 (stereo unspecified) | > 20 µM | > 20 µM
CC(=O)N[C@@H](Cc1ccccc1)C(=O)N[C@H]1CCCNC(=O)[C@H](CCCN=C(N)N)NC(=O)[C@H](Cc2c[nH]c3ccccc23)NC(=O)[C@@H](CC2CCCCC2)NC(=O)[C@@H]2CCCN2C1=O | > 20 µM | > 20 µM
O=C(O)CNC(=O)c1nc(Cl)c2ccccc2c1O | > 20 µM | > 20 µM
O=P(O)(O)OC[C@H]1OC(O)[C@H](O)[C@@H](O)[C@@H]1O (stereo partly specified) | > 20 µM | > 20 µM
CC(=O)N[C@@H](C=O)[C@@H](O)[C@H](O)[C@H](O)CO | > 20 µM | > 20 µM
CCOC(N)=O | > 20 µM | > 20 µM
NS(=O)(=O)NCc1csc2ccccc12 | > 20 µM | > 20 µM
COc1ccc2c(c1)[C@H]1C[C@@]1(C(=O)N1C3CCC1CN(C)C3)Cn1c-2c(C2CCCCC2)c2ccc(C(=O)NS(=O)(=O)N(C)C)cc21 | > 20 µM | > 20 µM
C[C@H]1C(O)O[C@@H]2O[C@@]3(C)CC[C@H]4[C@H](C)CCC1[C@@]24OO3 (stereo partly specified) | > 20 µM | > 20 µM
NC1=NCC(CN2CCN(c3ccccc3)CC2)O1 (stereo unspecified) | > 20 µM | > 20 µM
CCC(=O)OC(CC(=O)O)C[N+](C)(C)C (stereo unspecified) | > 20 µM | > 20 µM
COc1ccc2c3c1OC1C(OC(C)=O)=CCC4C(C2)N(C)CCC314 (stereo unspecified) | > 20 µM | > 20 µM
CC1CC2C3CCC4=CC(=O)C=CC4(C)[C@@]3(F)C(O)CC2(C)C1(O)C(=O)COP(=O)(O)O (stereo partly specified) | > 20 µM | > 20 µM
O=C(O)Cc1ccc(OCCNCC(O)c2ccccc2)cc1 (stereo unspecified) | > 20 µM | > 20 µM
CN1CCO[C@@H](c2ccccc2)c2ccccc2C1 | > 20 µM | > 20 µM
COc1ccc2c(c1)CC[C@@H](CN(C)CC(=O)O)[C@H]2c1ccccc1 | > 20 µM | > 20 µM
CNC(=O)CCN1CCN(CCC=C2c3ccccc3Sc3ccc(Cl)cc32)CC1 | > 20 µM | > 20 µM
C=CCNS(=O)(=O)c1cc(S(N)(=O)=O)c(Cl)cc1/N=C/C=C(\C)O | > 20 µM | > 20 µM
CCOC(=O)C1OC1C(=O)NC(CC(C)C)C(=O)N1CCN(Cc2ccc(OC)c(OC)c2OC)CC1 (stereo unspecified) | > 20 µM | > 20 µM

SMILES | IC50 | IC50 (read-out: pIC50 (converted))
CC1CC2C3CC(F)C4=CC(=O)C=CC4(C)C3C(O)CC2(C)C1C(=O)CO (stereo unspecified) | > 20 µM | > 20 µM
CCC[C@@H]1C[C@@H](C(=O)N[C@@H](C(C)O)[C@H]2O[C@H](SC)[C@H](O)[C@@H](O)[C@H]2O)N(C)C1 (stereo partly specified) | > 20 µM | > 20 µM
Cc1nnc(SCC2=C(C(=O)O)N3C(=O)C(NC(=O)C(N)c4ccc(O)cc4)C3SC2)s1 (stereo unspecified) | > 20 µM | > 20 µM
C[C@H]1O[C@H](OC[C@@H]2O[C@H](Oc3c(-c4ccc(O)c(O)c4)oc4cc(O)cc(O)c4c3=O)[C@@H](O)[C@H](O)[C@H]2O)[C@@H](O)[C@@H](O)[C@@H]1O | > 20 µM | > 20 µM
COc1cccc(C2(CCCN(C)C)C(=O)NC(=O)CC2(C)C)c1 (stereo unspecified) | > 20 µM | > 20 µM
CN[C@@H]1[C@H](O[C@H]2[C@H](O[C@@H]3[C@@H](O)[C@H](O)[C@@H](NC(=N)N)[C@H](O)[C@H]3NC(=N)N)O[C@@H](C)[C@]2(O)CO)O[C@@H](CO)[C@H](O)[C@H]1O | > 20 µM | > 20 µM
CC1(O)/C=C\C=C(\CO)C2CC(C)(C)C2(O)CC1 (stereo unspecified) | > 20 µM | > 20 µM
CN(C)Cc1ccc(CSCCNC2=NS(=O)(=O)c3cscc32)o1 | > 20 µM | > 20 µM
C=C(C)[C@@H]1[C@@H]2OC(=O)[C@H]1[C@]1(O)C[C@H]3O[C@]34C(=O)O[C@H]2[C@]14C.CC(C)(O)[C@@H]1[C@@H]2OC(=O)[C@H]1[C@]1(O)C[C@H]3O[C@]34C(=O)O[C@H]2[C@]14C | > 20 µM | > 20 µM
CC[C@H]1C2C[C@H]3[C@@H]4N(C)c5ccccc5[C@]45C[C@H](C2[C@H]5O)N3[C@@H]1O (stereo partly specified) | > 20 µM | > 20 µM
COc1ccc2c(c1)c(CC(=O)NC(CO)C(=O)O)c(C)n2C(=O)c1ccc(Cl)cc1 (stereo unspecified) | > 20 µM | > 20 µM
C[C@@H]1[C@H](O)[C@@H](C)\C=C/C=C\C=C/C=C\C=C/C=C\C=C/[C@H](O[C@@H]2O[C@H](C)[C@@H](O)[C@H](N)[C@@H]2O)C[C@@H]2O[C@](O)(C[C@@H](O)C[C@@H](O)[C@H](O)CC[C@@H](O)C[C@@H](O)CC(=O)O[C@H]1C)C[C@H](O)[C@H]2C(=O)O | > 20 µM | > 20 µM
N=C(N)NCCCNC(=O)[C@@H]1CCCCN1C(=O)[C@H](CC1CCCCC1)NCC(=O)O | > 20 µM | > 20 µM
CN(C)c1ccc(-c2ccc3cc(OC[C@@H](O)CF)ccc3n2)cc1 | > 20 µM | > 20 µM
CC12CCC(=O)C[C@@H]1CCC1C2CCC2(C)C1CCC2(C)O (stereo partly specified) | > 20 µM | > 20 µM
CC1CC[C@@]2(OC1)OC1CC3C4CC[C@H]5CC(O)CCC5(C)C4CC(=O)C3(C)C1C2C (stereo partly specified) | > 20 µM | > 20 µM
CC[C@H](C)[C@H]1O[C@]2(C=C[C@@H]1C)C[C@@H]1C[C@@H](C/C=C(/C)[C@@H](O[C@H]3C[C@H](OC)[C@@H](O[C@H]4C[C@H](OC)[C@@H](O)[C@H](C)O4)[C@H](C)O3)[C@@H](C)/C=C\C=C3\CO[C@@H]4[C@H](O)C(C)=C[C@@H](C(=O)O1)[C@]34O)O2 | > 20 µM | > 20 µM
CC(C)CCCC(C)C1CCC2C3C=CC4=CC(=O)CCC4(C)C3CCC12C (stereo unspecified) | > 20 µM | > 20 µM
O=C(O)CCCCCc1cccc2cncn12 | > 20 µM | > 20 µM
CC(/C=C1\SC(=S)N(CC(=O)O)C1=O)=C\c1ccccc1 | > 20 µM | > 20 µM
CCN(CC)CCOC(=O)C1(c2ccccc2)CCCC1 | > 20 µM | > 20 µM
O=C(OC1Cc2c(O)cc(O)cc2O[C@@H]1c1ccc(O)c(O)c1)c1cc(O)c(O)c(O)c1 (stereo partly specified) | > 20 µM | > 20 µM
C=CC1=C(C(=O)O)N2C(=O)[C@@H](NC(=O)/C(=N\O)c3csc(N)n3)[C@H]2SC1 | > 20 µM | > 20 µM
